# According to patent US20230105108A1, “COMPOUNDS FOR THE TREATMENT OF BACTERIAL INFECTIONS AND POTENTIATION OF ANTIBIOTICS” (GEORGIA STATE UNIVERSITY RESEARCH FOUNDATION, INC., priority 2019, published 2023):
# Counter-ions that a name gives are not always drawn. Like-named read-outs stand apart in the source and are kept apart here.
# Assays:
# Format in all cases: cell-based
# E. coli (ATCC 25922) = experiment: MIC determination, sensitization fold and FIC index on E. coli; settings: for MIC of AB with MD-124: MD-124 concentration 5 μg/ml; for MIC: Escherichia coli, ATCC25922, 24 h; for Sensitization: compound up to 25 μM
# Procedure: Bacteria culture and MICs determination: Gram-negative bacteria were cultured in Mueller Hinton II cation-adjusted broth. Gram-positive bacteria were cultured in LB broth. Mycobacterium smegmatis was cultured in Middlebrook 7H9 Broth. MICs of antibiotics itself were determined by performing two-fold serial dilutions of antibiotics. MICs of antibiotics in the presence of bacterial sensitizers were determined by performing two-fold serial dilutions of antibiotics with or without a constant concentration of bacterial sensitizers. The MICs tests were performed on 96-well plates with a final volume of 200 μl Mueller Hinton II cation-adjusted broth in each well. Each well was inoculated with 5×10^5 CFU/ml bacteria and was incubated for 24 h at 37° C. with continuous shaking of 200 rpm. The bacterial density was then determined by OD600. Bacterial growth %=OD600 of antibiotic treatment group/OD600 of antibiotic non-treatment group. MICs was determined as the concentrations that inhibit more than 90% of bacteria growth.
# Sensitization fold determination and FIC index calculations: Sensitization fold=MIC of antibiotic only/MIC of antibiotic with bacterial sensitizer. […] Since the MICs were determined by performing two-fold serial dilutions of antibiotic, so the sensitization fold can is the times of 2.
# FIC index between compound a and b was calculated according to the formula below: […]
# FIC≤0.5: Synergy; FIC between 0.5 and 1: Additive; FIC between 1 and […]: no interaction; FIC >4: antagonism.
# Bacteria strains (as indicated in Table 5B) were cultured with rifampicin at various concentrations in the presence or absence of 10 μM of the indicated compound for 20 h at 37° C. The MIC, sensitization, cytotoxicity, and MIC on mycobacteria were tested according to methods described herein. […] The sensitization activities of compounds on MRSA were tested using rifampicin. The sensitization activities of compounds on E. coli were tested using rifampicin.
# [1] = test system: NDM-1 expressing E. coli strain; experiment: microbe, parasite or virus in culture
# [2] = test system: mcr-1 over-expressing E. coli strains; experiment: microbe, parasite or virus in culture; settings: Escherichia coli
# B. subtilis = experiment: MIC determination and sensitization fold on B. subtilis; settings: B. subtilis; for MIC: Bacillus subtilis, 24 h, compound alone, read-out: MIC
# [3] = Cytotoxicity in H9c2 cells (CCK-8); settings: rat, H9c2 cells; H9c2 cell line
# Procedure: The cytotoxicity in H9c2 (ATCC®CRL-1446™) cells was also determined. The H9c2 cells were maintained in DMEM (Dulbecco's Modified Eagle's Medium) supplemented with 10% fetal bovine serum (MidSci; S01520HI) and 1% penicillin-streptomycin (Sigma-Aldrich; P4333) at 37° C. with 5% CO2. The H9c2 cells were seeded in 96-well plate one day before the experiment. Different concentrations of di-amidine compounds were added into the H9c2 cells. The cells were then incubated with the compounds for 24 hours at 37° C. with 5% CO2. The cell viability was tested by the CCK-8. Specifically, after 24 hour incubation, 10 μL CCK-8 was added to each well. After 3 hours incubation at 37° C., the absorbance at 450 nm was recorded by a plate reader.
# [4] = E. coli towards the antibiotic, MD-124 5 μg/ml
# [5] = E. coli (wild type), antibiotic alone, read-out: MIC of AB only
# [6] = E. coli, compound alone, read-out: MIC
smiles,measurement,setting,value
CC1(C)S[C@@H]2[C@H](NC(=O)[C@H](N)c3ccccc3)C(=O)N2[C@H]1C(=O)O [Ampicillin],MIC on wild-type E.coli,E. coli (ATCC 25922); antibiotic alone (Table 14),6 µg/mL
same,MIC of AB with 5 μg/ml MD-124,[1]; NDM-1 expressing E. coli,300 µg/mL
same,Sensitization fold with 5 μg/ml MD-124,[1]; NDM-1 expressing E. coli towards the antibiotic,>1 fold
same,MFC of AB only,"[1]; NDM-1 expressing E. coli, antibiotic alone",>300 µg/mL
same,MIC on NDM-1 over-expression E. coli,[1]; antibiotic alone (Table 14),>300 µg/mL
"CC[C@H]1OC(=O)[C@H](C)[C@@H](O[C@H]2C[C@@](C)(OC)[C@@H](O)[C@H](C)O2)[C@H](C)[C@@H](O[C@@H]2O[C@H](C)C[C@H](N(C)C)[C@H]2O)[C@](C)(O)C[C@@H](C)CN(C)[C@H](C)[C@@H](O)[C@]1(C)O [Azithromycin, reference compound]",Sensitization fold,E. coli (ATCC 25922); [4],16 fold
same,MIC of AB with MD-124,E. coli (ATCC 25922); E. coli,0.4 µg/mL
same,MIC,E. coli (ATCC 25922); [5],6.2 µg/mL
"N[C@@H]1CCCCN(c2c(F)cc3c(=O)c(C(=O)O)cn(C4CC4)c3c2Cl)C1 [Besifloxacin, reference compound]",Sensitization fold,E. coli (ATCC 25922); [4],8 fold
same,MIC of AB with MD-124,E. coli (ATCC 25922); E. coli,0.0125 µg/mL
same,MIC,E. coli (ATCC 25922); [5],0.1 µg/mL
CC[C@H]1OC(=O)[C@H](C)[C@@H](O[C@H]2C[C@@](C)(OC)[C@@H](O)[C@H](C)O2)[C@H](C)[C@@H](O[C@@H]2O[C@H](C)C[C@H](N(C)C)[C@H]2O)[C@](C)(OC)C[C@@H](C)C(=O)[C@H](C)[C@@H](O)[C@]1(C)O [Clarithromycin],MIC,"[2]; mcr-1 over-expression E. coli strain (MIC of polymyxin B 30 μg/ml), read-out: MIC of AB only",25 µg/mL
same,MIC,"[2]; read-out: MIC of AB with 5 μg/ml MD-124, mcr-1 over-expression E. coli strain (MIC of polymyxin B 30 μg/ml)",≤ 0.2 µg/mL
"Cc1onc(-c2ccccc2Cl)c1C(=O)N[C@@H]1C(=O)N2[C@@H]1SC(C)(C)[C@@H]2C(=O)O [Cloxacillin, reference compound]",Sensitization fold,E. coli (ATCC 25922); [4],>4 fold
same,MIC of AB with MD-124,E. coli (ATCC 25922); E. coli,75 µg/mL
same,MIC,E. coli (ATCC 25922); [5],> 300 µg/mL
N=C(N)c1ccc(OCOc2ccc(C(=N)N)cc2)cc1 [DB1824],Sensitization fold,"B. subtilis; erythromycin, compound at 12.5 μM","2-fold at 12.5 μM,"
same,MIC,B. subtilis,12.5 µM
same,CC50 at 24 h,[3],> 100 µM
same,Sensitization,"E. coli (ATCC 25922); E. coli, rifampicin",No effect up to 25 μM
same,MIC,E. coli (ATCC 25922); [6],> 100 µM
N=C(N)c1ccc(OCCCCCCOc2ccc(C(=N)N)cc2)cc1 [DB2362],Sensitization fold,"B. subtilis; erythromycin, compound at 6 μM",4-fold at 6 μM
same,CC50 at 24 h,[3],25 µM
same,Sensitization fold,"E. coli (ATCC 25922); E. coli, rifampicin, compound at 25 μM",8-fold at 25 μM;
same,MIC,E. coli (ATCC 25922); [6],50 µM
N=C(N)c1ccc(OCc2cccc(COc3ccc(C(=N)N)cc3)n2)cc1 [DB2447],Sensitization fold,"B. subtilis; erythromycin, compound at 2 μM",No effect at 2 μM.
same,CC50 at 24 h,[3],> 100 µM
same,Sensitization,"E. coli (ATCC 25922); E. coli, rifampicin",No effect up to 25 μM
same,MIC,E. coli (ATCC 25922); [6],100 µM
N=C(N)c1ccc(OCc2cccc(COc3ccc(C(N)=O)cc3)n2)cc1 [DB2449],Sensitization,"B. subtilis; erythromycin, compound up to 25 μM",No effect up to 25 μM
same,MIC,B. subtilis,> 50 µM
same,CC50 at 24 h,[3],> 100 µM
same,Sensitization,"E. coli (ATCC 25922); E. coli, rifampicin",No effect up to 25 μM
same,MIC,E. coli (ATCC 25922); [6],> 100 µM
"Fc1c(COc2ccc(C3=NCCN3)cc2)cccc1COc1ccc(C2=NCCN2)cc1 [DB2510, 1,3-Bis {(4-(2-imidazolino))-phenoxymethyl}-2-fluorobenzene dihydrochloride]",CC50 at 24 h,[3],25 µM
same,Sensitization,"E. coli (ATCC 25922); E. coli, rifampicin",No effect up to 25 μM
same,MIC,E. coli (ATCC 25922); [6],> 50 µM
"c1cc(COc2ccc(C3=NCCN3)cc2)cc(COc2ccc(C3=NCCN3)cc2)c1 [DB2538, 1,3-Bis {(4-(2-imidazolino))-phenoxymethyl}-benzene dihydrochloride]",Sensitization fold,"B. subtilis; erythromycin, compound at 12 μM",4-fold at 12 μM
same,MIC,B. subtilis,> 50 µM
same,CC50 at 24 h,[3],< 12.5 µM
same,Sensitization,"E. coli (ATCC 25922); E. coli, rifampicin",No effect up to 25 μM
same,MIC,E. coli (ATCC 25922); [6],> 50 µM
"Fc1cc(C2=NCCN2)ccc1OCc1cccc(COc2ccc(C3=NCCN3)cc2F)c1F [DB2554, 1,3-Bis {4-(2-imidazolino)-2-fluoro)-phenoxy methyl}-2-fluorobenzene dihydrochloride]",CC50 at 24 h,[3],50 µM
same,Sensitization,"E. coli (ATCC 25922); E. coli, rifampicin",No effect up to 25 μM
same,MIC,E. coli (ATCC 25922); [6],> 50 µM
